What was measured:
[1] = system: Human immunodeficiency virus 1; assay: Antiviral activity against HIV1 IIIB harboring L100I mutant infected in MT4 cells assessed as reduction in virus induced cytopathic effect incubated for 5 days by MTT method; assay type: functional, organism-based; details: Human immunodeficiency virus 1, IIIB, MT4, 120 h
[2] = system: Human immunodeficiency virus 1; assay: Antiviral activity against HIV1 IIIB infected in MT4 cells assessed as reduction in virus induced cytopathic effect incubated for 5 days by MTT method; assay type: functional, organism-based; details: Human immunodeficiency virus 1, IIIB, MT4, 120 h
[3] = system: Human immunodeficiency virus 1; assay: Antiviral activity against HIV1 IIIB harboring Y181C mutant infected in MT4 cells assessed as reduction in virus induced cytopathic effect incubated for 5 days by MTT method; assay type: functional, organism-based; details: Human immunodeficiency virus 1, IIIB, MT4, 120 h
[4] = system: Human immunodeficiency virus 1; assay: Antiviral activity against HIV1 IIIB harboring RES056 mutant infected in MT4 cells assessed as reduction in virus induced cytopathic effect incubated for 5 days by MTT method; assay type: functional, organism-based; details: Human immunodeficiency virus 1, IIIB, MT4, 120 h
[5] = system: Human immunodeficiency virus 1; assay: Antiviral activity against HIV1 IIIB harboring K103 N mutant infected in MT4 cells assessed as reduction in virus induced cytopathic effect incubated for 5 days by MTT method; assay type: functional, organism-based; details: Human immunodeficiency virus 1, IIIB, MT4, 120 h
[6] = system: Human immunodeficiency virus 1; assay: Antiviral activity against HIV1 IIIB harboring E138K mutant infected in MT4 cells assessed as reduction in virus induced cytopathic effect incubated for 5 days by MTT method; assay type: functional, organism-based; details: Human immunodeficiency virus 1, IIIB, MT4, 120 h
[7] = Selectivity index, ratio of CC50 for human MT4 cells to EC50 for antiviral activity against HIV1 IIIB infected in MT4 cells; assay type: toxicity, cell-based; details: read-out: Ratio CC50/EC50
[8] = Cytotoxicity against human MT4 cells assessed as reduction in cell viability incubated for 5 days by MTT method; assay type: toxicity, cell-based; details: time 5 day
[9] = system: Human immunodeficiency virus 1; assay: Antiviral activity against HIV1 IIIB harboring Y188L mutant infected in MT4 cells assessed as reduction in virus induced cytopathic effect incubated for 5 days by MTT method; assay type: functional, organism-based; details: Human immunodeficiency virus 1, IIIB, MT4, 120 h
[10] = system: Human immunodeficiency virus 1; assay: Antiviral activity against HIV1 IIIB harboring F227L/V106A double mutant infected in MT4 cells assessed as reduction in virus induced cytopathic effect incubated for 5 days by MTT method; assay type: functional, organism-based; details: Human immunodeficiency virus 1, IIIB, MT4, 120 h
[11] = target: Human immunodeficiency virus type 1 reverse transcriptase (Human immunodeficiency virus 1) (UniProt Q72547); assay: Inhibition of HIV-1 reverse transcriptase incubated for 2 hrs in presence of template and viral nucleotides by ELISA relative to control; design: concentration or dose not given beside the values; details: concentration not given here

| Compound | EC50 [1] | EC50 [2] | EC50 [3] | EC50 [4] | EC50 [5] | EC50 [6] | selectivity ratio [7] | CC50 at 120 h [8] | EC50 [9] | EC50 [10] | inhibition [11] |
| --- | --- | --- | --- | --- | --- | --- | --- | --- | --- | --- | --- |
| Cc1cc(/C=C/C#N)cc(C)c1Oc1nc(NC2CCN(Cc3cn(CC(N)=O)nn3)CC2)nc2ccccc12 | 17 nM | 6 nM | 33 nM | 187 nM | 8 nM | 23 nM | 3300 | 18.1 µM | 81 nM | 499 nM | – |
| Cc1cc(/C=C/C#N)cc(C)c1Oc1nc(NC2CCN(Cc3cn(CC(=O)NC4CC4)nn3)CC2)nc2c1COC2 | 16 nM | 5 nM | 33 nM | 304 nM | 8 nM | 15 nM | 22800 | 118 µM | 114 nM | 275 nM | – |
| CCNC(=O)Cn1cc(CN2CCC(Nc3nc(Oc4c(C)cc(/C=C/C#N)cc4C)c4sccc4n3)CC2)nn1 | 12 nM | 5 nM | 25 nM | 181 nM | 6 nM | 33 nM | 3640 | 17.5 µM | 80 nM | 168 nM | – |
| Cc1ccccc1Cn1cc(CCNc2nccc(Oc3c(C)cc(C#N)cc3C)n2)nn1 | – | – | – | – | – | – | – | – | – | – | 55% |
| CNC(=O)Cn1cc(CN2CCC(Nc3nc(Oc4c(C)cc(/C=C/C#N)cc4C)c4ccccc4n3)CC2)nn1 | 8 nM | 5 nM | 18 nM | 139 nM | – | 13 nM | 4020 | 18.1 µM | 49 nM | 257 nM | – |
| Cc1cc(/C=C/C#N)cc(C)c1Oc1nc(NC2CCN(Cc3cn(CC(=O)NC4CCOCC4)nn3)CC2)nc2ccccc12 | 15 nM | 8 nM | 31 nM | 161 nM | 14 nM | 27 nM | 2300 | 18.4 µM | 55 nM | 645 nM | – |
| Cc1ccnc2c1NC(=O)c1cccnc1N2C1CC1 [NEVIRAPINE] | – | 151 nM | – | > 15000 nM | – | – | – | > 15 µM | – | – | – |
| Cc1cc(/C=C/C#N)cc(C)c1Oc1nc(NC2CCN(Cc3cn(CC(N)=O)nn3)CC2)nc2ccsc12 | 18 nM | 5 nM | 32 nM | 240 nM | 8 nM | 21 nM | 3000 | 16.2 µM | 97 nM | 94 nM | – |
| CCNC(=O)Cn1cc(CN2CCC(Nc3nccc(Oc4c(C)cc(/C=C/C#N)cc4C)n3)CC2)nn1 | 7 nM | 1 nM | 7 nM | 215 nM | 2 nM | 11 nM | 14800 | 20.7 µM | 406 nM | 164 nM | – |
| Cc1cc(C#N)cc(C)c1Oc1ccnc(NC2CCN(Cc3cn(Cc4ccccc4C#N)nn3)CC2)n1 | 231 nM | 2 nM | 27 nM | > 4240 nM | 15 nM | 27 nM | 2020 | 4.24 µM | 366 nM | 1040 nM | 91.3% |
| Cc1cc(/C=C/C#N)cc(C)c1Oc1ccnc(NCCc2cn(Cc3ccc(S(N)(=O)=O)cc3)nn2)n1 | – | – | – | – | – | – | – | – | – | – | 69.2% |
| CNC(=O)Cn1cc(CN2CCC(Nc3nc(Oc4c(C)cc(/C=C/C#N)cc4C)c4sccc4n3)CC2)nn1 | 6 nM | 4 nM | 16 nM | 99 nM | 5 nM | 14 nM | 4720 | 18.4 µM | 44 nM | 66 nM | – |
| Cc1cc(/C=C/C#N)cc(C)c1Oc1nc(NC2CCN(Cc3cn(CC(=O)NC4CC4)nn3)CC2)nc2ccsc12 | 17 nM | 6 nM | 23 nM | 191 nM | – | 26 nM | 2940 | 18.2 µM | 88 nM | 159 nM | – |
| CNC(=O)Cn1cc(CN2CCC(Nc3nccc(Oc4c(C)cc(/C=C/C#N)cc4C)n3)CC2)nn1 | 10 nM | 1 nM | 11 nM | 262 nM | 2 nM | 10 nM | 19600 | 23.5 µM | 551 nM | 209 nM | – |
| Cc1cc(C#N)cc(C)c1Oc1nc(Nc2ccc(C#N)cc2)nc(N)c1Br [ETRAVIRINE] | 7 nM | – | 12 nM | 38 nM | 3 nM | 4 nM | > 1090 | > 4.59 µM | – | – | 52.3% |

Reference: ChEMBL document CHEMBL5614409, “Discovery of potent HIV-1 NNRTIs by CuAAC click-chemistry-based miniaturized synthesis, rapid screening and structure optimization” (Eur J Med Chem, 2024)
